Test [1] concerns the target Beta-2 adrenergic receptor (Cavia porcellus) (UniProt Q8K4Z4). Nature of the test: Tested in vitro for binding activity to Beta-2 adrenergic receptor in guinea pig trachea (GPT). It is filed as tissue-based.
Test [2] addresses D(2) dopamine receptor (Homo sapiens) (UniProt P14416). Nature of the test: Tested in vitro for binding activity to Dopamine receptor D2 in field stimulated rabbit ear artery (D2-REA). The following applies: Oryctolagus cuniculus; target entry is the homologue from another species.
Test [3] addresses D(2) dopamine receptor (Bos taurus) (UniProt P20288). Nature of the test: Tested in vitro for binding activity to Dopamine receptor D2 in bovine pituitary membranes (D2-LB). Format: cell membranes.
Test [4] concerns the target Adrenergic receptor alpha-1 (Homo sapiens) (UniProt P35348+P25100+P35368). Nature of the test: Tested in vitro for binding activity to Alpha-1 adrenergic receptor in field stimulated rabbit ear artery (REA). The following applies: Oryctolagus cuniculus; target entry is the homologue from another species.
Test [5] deals with D(2) dopamine receptor (Homo sapiens) (UniProt P14416). Description: Tested in vitro for binding activity to Dopamine receptor D2 in field stimulated rabbit ear artery (D2-REA); f denotes 'Data compromised by high […] agonist activity'. Conditions: Oryctolagus cuniculus; target entry is the homologue from another species.

Consider six compounds from ChEMBL document CHEMBL1131414, “Dual D2-receptor and beta2-adrenoceptor agonists for the treatment of airway diseases. 1. Discovery and biological evaluation of some 7-(2-aminoethyl)-4-hydroxybenzothiazol-2(3H)-one analogues” (J Med Chem, 1998).

Molecules are shown by their SMILES. Calls of active or inactive are those of the source. The calls are words filed in the database; no cut-off is given here.

Beta-2 adrenergic receptor (Cavia porcellus), sequence (Q8K4Z4 whole entry, looked up): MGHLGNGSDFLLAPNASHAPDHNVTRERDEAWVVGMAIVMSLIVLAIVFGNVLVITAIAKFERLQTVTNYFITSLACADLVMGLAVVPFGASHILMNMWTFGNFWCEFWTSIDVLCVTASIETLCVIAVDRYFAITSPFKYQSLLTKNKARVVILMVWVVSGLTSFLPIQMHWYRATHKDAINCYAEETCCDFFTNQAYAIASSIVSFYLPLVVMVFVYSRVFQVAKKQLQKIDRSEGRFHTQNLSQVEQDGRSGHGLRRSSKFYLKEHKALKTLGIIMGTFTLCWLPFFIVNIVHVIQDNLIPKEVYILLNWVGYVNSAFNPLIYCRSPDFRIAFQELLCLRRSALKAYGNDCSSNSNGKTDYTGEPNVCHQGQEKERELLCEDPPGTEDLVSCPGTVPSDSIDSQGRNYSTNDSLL
D(2) dopamine receptor (Bos taurus), sequence (P20288 whole entry): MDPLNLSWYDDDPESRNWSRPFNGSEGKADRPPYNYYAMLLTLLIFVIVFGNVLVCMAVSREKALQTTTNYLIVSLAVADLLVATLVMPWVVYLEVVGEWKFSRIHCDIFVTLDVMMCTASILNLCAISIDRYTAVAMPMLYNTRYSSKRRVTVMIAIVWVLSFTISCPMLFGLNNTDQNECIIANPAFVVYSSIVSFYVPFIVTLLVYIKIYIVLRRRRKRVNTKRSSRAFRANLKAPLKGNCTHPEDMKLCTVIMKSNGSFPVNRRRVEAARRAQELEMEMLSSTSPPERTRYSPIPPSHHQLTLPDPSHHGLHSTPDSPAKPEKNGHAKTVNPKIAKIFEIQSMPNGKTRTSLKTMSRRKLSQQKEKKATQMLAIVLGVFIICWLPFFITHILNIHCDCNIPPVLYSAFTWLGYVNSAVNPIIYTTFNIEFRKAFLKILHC
D(2) dopamine receptor (Homo sapiens), sequence (P14416 whole entry): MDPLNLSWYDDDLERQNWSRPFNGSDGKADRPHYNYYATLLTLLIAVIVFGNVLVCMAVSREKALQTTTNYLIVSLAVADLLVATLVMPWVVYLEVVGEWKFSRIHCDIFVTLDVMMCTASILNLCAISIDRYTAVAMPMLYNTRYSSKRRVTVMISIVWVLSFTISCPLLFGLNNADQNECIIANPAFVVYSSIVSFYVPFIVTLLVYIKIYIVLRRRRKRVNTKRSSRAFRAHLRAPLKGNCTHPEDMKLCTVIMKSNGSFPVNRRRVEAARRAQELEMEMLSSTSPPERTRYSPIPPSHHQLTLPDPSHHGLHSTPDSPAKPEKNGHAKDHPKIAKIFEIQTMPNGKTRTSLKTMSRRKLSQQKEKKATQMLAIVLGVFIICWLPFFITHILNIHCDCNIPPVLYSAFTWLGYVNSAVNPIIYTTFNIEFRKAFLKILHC

As for `CCCN(CCC)CCc1ccc(O)c2nc(O)sc12`, the p[A]50 in test [1] is less than 5; in test [2], 9.6; in test [4], 6.03. In test [3], this compound gave a pKH of 9.34. In test [3], the pKL came to 6.85.

Turning to `Oc1nc2c(O)ccc(CCNCCCCCCNCCc3ccccc3)c2s1`, the p[A]50 in test [1] stood at 7.19. The “p[A]50” value in test [5] was “inactive”. Besides, in test [3], the pKH amounted to 8.99 and the pKL is 6.44. The p[A]50 in test [4] was 6.81.

Turning to `Oc1nc2c(O)ccc(CCNCCCCCCOCCCCc3ccccc3)c2s1`, the p[A]50 in test [1] is 7.33. Further, the “p[A]50” value in test [5] is “inactive”. In test [3], this compound displayed a pKH of 9.33 and a pKL of 7.11. Further, the p[A]50 in test [4] is 6.85.

`O=c1[nH]c2c(O)ccc(CCNCCS(=O)(=O)CCCOCCc3ccccc3)c2s1`: the p[A]50 in test [1] came out at 7.95; in test [2] it was 8.94; in test [4], 6.08. For the same compound, the pKH in test [3] came out at 8.61. For the same compound, in test [3], the pKL came out at 6.48.

Regarding `OCc1cc(C(O)CNCCCCCCOCCCCc2ccccc2)ccc1O` (configuration not stated), the p[A]50 stood at 7.52 in test [1] and 5.49 in test [4].

As for `Oc1nc2c(O)ccc(CCNCCCCCCOCCc3ccccc3)c2s1`, the p[A]50 in test [1] came out at 7.89. In addition, in test [5], the “p[A]50” value is “inactive”. In test [3], this compound yielded a pKH of 9.01 and a pKL of 6.93. This compound also registered a p[A]50 in test [4] of 7.56.
